Test results published in ChEMBL document CHEMBL1649307, “Development, validation, and routine application of a high-performance liquid chromatography method coupled with a single mass detector for quantification of itraconazole, voriconazole, and posaconazole in human plasma” (Antimicrob Agents Chemother, 2010).
One block for each compound: values may come before it.

Tests used:
Type in all cases: ADME, organism-based
Conditions in all cases: in vivo
Plasma [1] = assay: Metabolic stability in healthy human plasma assessed as compound recovery at 3 mg/kg QD; set-up: dose 3 mg/kg
Plasma [2] = assay: Metabolic stability in healthy human plasma assessed as compound recovery at 6 mg/kg BID; set-up: dose 6 mg/kg
Plasma [3] = assay: Metabolic stability in healthy human plasma assessed as compound recovery at 7 mg/kg BID; set-up: dose 7 mg/kg

Stability (Plasma [1]): 114.5%
Compound: CCC(C)n1ncn(-c2ccc(N3CCN(c4ccc(OCC5COC(Cn6cncn6)(c6ccc(Cl)cc6Cl)O5)cc4)CC3)cc2)c1=O (stereo not drawn) [ITRACONAZOLE]

Compound: CC[C@@H]([C@H](C)O)n1ncn(-c2ccc(N3CCN(c4ccc(OC[C@@H]5CO[C@@](Cn6cncn6)(c6ccc(F)cc6F)C5)cc4)CC3)cc2)c1=O [POSACONAZOLE]
Stability (Plasma [2]): 85.5%

Compound: C[C@@H](c1ncncc1F)[C@](O)(Cn1cncn1)c1ccc(F)cc1F [VORICONAZOLE]
Stability (Plasma [3]): 97.2%
